According to patent US8367342B2, “Cardiac hypertrophy” (Lead Pharma Drug Development IP B.V., priority 2006, dated 2013):

Tested on: neonatal rat ventricular myocytes
Test: Cardiomyocyte hypertrophy (a-actinin staining, cell surface area) in cultured neonatal rat cardiomyocytes
Type: cell-based
Set-up: dose or concentration left out as unconfirmed
Conditions: cells treated with the control siRNA; AdCnA infection or phenylephrine
Method: Cardiomyocyte cultures and siRNA transfection. Neonatal rat ventricular myocytes were obtained as described previously in detail^6. Neonatal ventricular rat myocytes were obtained by enzymatic dissociation of 1-2 day old rat neonatal ventricles. Ventricles were stored in HEPES buffered DMEM (pH. 7.4) prior to multiple rounds of enzymatic digestion in DMEM nutrient mixture F-12 Ham base (Sigma) supplemented with 0.7 mg/ml collagenase type 2 (Invitrogen) and 1 mg/ml […] (Sigma). Cells were collected by centrifugation at 61×g for 10 min., resuspended in neonatal calf serum (Invitrogen) and stored in an incubator at 37° C. All cell suspensions were pooled, centrifuged at 61×g for 10 min. and resuspended in DMEM (Invitrogen) supplemented with 10% horse serum (Invitrogen) and 5% fetal calf serum (Invitrogen). […]
Immunocytochemistry and confocal microscopy. […] Cells were washed 3 times with PBS for 5 minutes, mounted with coverslips in 0.1 M Tris-HCl (pH 9.5)-glycerol (3:7) including 50 mg/ml n-propylgallate as anti-fading reagent, and analyzed by confocal microscopy using a Zeiss LSM 510 META instrument. […] Cell surface areas were determined using SPOT-imaging software (Diagnostic Instruments) on 80-100 GFP-positive cardiomyocytes in 10 to 20 fields in three independent experiments. […]

CNC[C@H](O)c1cccc(O)c1 [PE, phenylephrine]
hypertrophy response: robust hypertrophy response
